Laboratory results: patent US20260193571A1, “AQUEOUS COMPOSITION CONTAINING CUCURBITURILS” (Clariant International Ltd, priority 2022, published 2026)
Converted amounts (≈) assume the structure as drawn. Values belong to the molecule of their own block, whether it stands above or below them.

What was measured:
[1] = Increasing the solubility of cucurbiturils in water: appearance of aqueous compositions comprising cucurbiturils; format: physicochemical; conditions: 0.2 percent by weight cucurbituril sample, 25° C.
Experimental: Compositions consisting of the cucurbituril sample and water and compositions consisting of the cucurbituril sample, other substances but no solubilizing agents according to component Z2) of the inventive aqueous compositions, and water were prepared and used as comparative compositions.

[2] = in water at room temperature (25° C.); cited from earlier work
[3] = Malodor removing effect: headspace GC-MS measurement of odorants; conditions: headspace 60° C. 30 min, no agent/no cucurbiturils = 100
Experimental: An artificial malodor composition was prepared by mixing 10 mg of 2,3-butanedione, 5 mg of octanal, 30 mg of isovaleraldehyde, 300 mg of isovaleric acid and 50 mg of hexanal in 1 L of water.
The cucurbituril sample contains cucurbit[6]uril (50% by weight), cucurbit[7]uril (35% by weight) and cucurbit[8]uril (10% by weight).
Aqueous cucurbituril composition B: 0.5% by weight of the cucurbituril sample was mixed in water.
1 mL of aqueous cucurbituril composition A or B, 1 mL of malodor composition and 3 mL of water were mixed.
1 mL of 5% by weight of solubilizing agent in water, 1 mL of malodor composition and 3 mL of water were mixed.
4 mL of water and 1 mL of malodor composition were mixed.
The mixtures were prepared in headspace vials. The vials were then closed tightly and analyzed.
Analytical evaluation of malodor in the vials was conducted through a headspace measurement. A Gas Chromatograph Agilent 9000 Intuvo equipped with an autosampler Agilent 7697A equipped with a headspace extracting syringe, a Mass Detector Agilent MSD 5977B was used.
The headspace vials were equilibrated at 60° C. for 30 min at the autosampler before the measurement. A gas phase sample of 1000 μL was extracted from the vial and injected into the GC column. • Carrier gas: Helium 22.7 psi, split 5:1 • Column: DB-624 UI (length 60m, diameter 250 μm, size of film 1.4 μm) • Oven: Initial 40° C.—Hold time 2 mb—Rate 20° C./min—Temperature 260° C. —Hold time 5 min • Mass detector parameter: run in select ion mode. The peak area of each odorant was then integrated and recorded.

[4] = substance at 5 percent by weight in water
[5] = substance at 10 percent by weight in water
[6] = mixture contains cucurbiturils: 1 mL composition A (5% agent + 0.5% cucurbituril sample) or B (0.5% sample only) + 1 mL malodor composition + 3 mL water
[7] = mixture without cucurbiturils: 1 mL of 5% by weight solubilizing agent + 1 mL malodor composition + 3 mL water

Molecule: C12/14 alkyl ethoxylate with 8 EO
- Appearance [1, 4]: very turbid

Molecule: O=C1N2CN3C(=O)N4CN5C(=O)N6CN7C(=O)N8CN9C(=O)N%10CN%11C(=O)N%12CN1C1C2N2CN%13C(=O)N(CN%14C(=O)N(CN%15C(=O)N(CN%16C(=O)N(CN%17C(=O)N(CN1C2=O)C%12C%11%17)C%10C9%16)C8C7%15)C6C5%14)C4C3%13 (stereo not shown) [cucurbit[6]uril]
- water solubility [2]: 18 mg/L (≈ 18.1 µM)

Molecule: O=C1N2CN3C(=O)N4CN5C(=O)N6CN7C(=O)N8CN9C(=O)N%10CN%11C(=O)N%12CN%13C(=O)N%14CN%15C(=O)N%16CN1C1C2N2CN%17C(=O)N(CN%18C(=O)N(CN%19C(=O)N(CN%20C(=O)N(CN%21C(=O)N(CN%22C(=O)N(CN%23C(=O)N(CN1C2=O)C%16C%15%23)C%14C%13%22)C%12C%11%21)C%10C9%20)C8C7%19)C6C5%18)C4C3%17 (stereo not shown) [cucurbit[8]uril]
- water solubility [2]: 17 mg/L (≈ 12.8 µM)

Molecule: Alkylbenzene sulfonate
- Appearance [1, 4]: very turbid

Second part, led by results:

- Appearance [1, 4]: very turbid
Molecule: Sodium laureth sulfate

- Appearance [1, 5]: very turbid
Molecule: [Ca+2].[Cl-].[Cl-] [CaCl2]

- Appearance [1, 4]: clear
Molecule: lauramine oxide [Genaminox LA]
- Relative peak area 2,3-butadione [3, 6]: 11
- Relative peak area hexanal [3, 6]: 9
- Relative peak area isovaleraldehyde [3, 6]: 6
- Relative peak area isovaleric acid [3, 6]: 3
- Relative peak area octanal [3, 6]: 73
- Relative peak area 2,3-butadione [3, 7]: 181
- Relative peak area hexanal [3, 7]: 203
- Relative peak area isovaleraldehyde [3, 7]: 182
- Relative peak area isovaleric acid [3, 7]: 10
- Relative peak area octanal [3, 7]: 134

- Appearance [1, 5]: very turbid
Molecule: CCO [Ethanol]

- Appearance [1, 5]: very turbid
Molecule: CC(O)CO (stereo not shown) [Propylene glycol]
